Measured values: patent publication US9676760B2, “Fused heterocyclic compounds as ion channel modulators” (Gilead Sciences, Inc., priority 2011, dated 2017)

These compounds were tested against wild-type human cardiac sodium channel, hNav1.5 (Homo sapiens, UniProt Q14524) (assay: Late INa screening assay (QPatch whole cell patch clamp, HEK293)). Conditions: HEK293, percent block of late INa; compound at 1 μM; 10 μM Tefluthrin; read-out: Late INa 1 μM.
Format: cell-based
Description: The late sodium current (Late INa) and peak sodium current (Peak INa) assays are performed on an automated electrophysiology platform, QPatch 16× (Sophion Bioscience, Copenhagen, Denmark), which uses the whole cell patch clamp technique to measure currents through the cell membrane of up to 16 cells at a time. The assay uses an HEK293 (human embryonic kidney) cell line heterologously expressing the wild-type human cardiac sodium channel, hNav1.5, purchased from Millipore (Billerica, Mass.). No beta subunits were coexpressed with the Na channel alpha subunit. Cells are maintained with standard tissue culture procedures and stable channel expression is maintained with 400 μg/mL Geneticin in the culture medium. Cells isolated for use on QPatch are incubated for 5 minutes in Detachin 1×(Genlantis, San Diego, USA) at 37° C. to ensure that 80-90% of the cells are single and not part of a cell cluster. Experiments are carried out at 23-25° C.
For both the Late INa and Peak INa assays, series resistance compensation is set to 100% and series resistance and whole-cell compensation are performed automatically. Currents are digitized at 25 kHz and low-pass filtered at 12 kHz and 10 kHz for the late and peak INa assays, respectively. Currents through open sodium channels are automatically recorded and stored in the Sophion Bioscience Oracle database (Sophion Bioscience, Copenhagen, Denmark). Analysis is performed using QPatch Assay and database software and data are compiled in Excel.
Compound stocks are routinely made by the Gilead Sample Bank in plastic vials to 10 mM in dimethyl sulfoxide (DMSO). In some cases, when compounds are not soluble in DMSO, they are made in 100% ethanol. Stocks are sonicated as necessary. The extracellular solution for screening Late INa is composed of: 140 mM NaCl, 4 mM KCl, 1.8 mM CaCl2, 0.75 mM MgCl2 and 5 mM HEPES with pH adjusted to 7.4 using NaOH. The intracellular solution used to perfuse the inside of the cells for both the Late INa and Peak INa assays contains: 120 mM CsF, 20 mM CsCl, 5 mM EGTA, 5 mM HEPES and pH adjusted to 7.4 with CsOH. Compounds are diluted in extracellular solution to 1 μM in glass vials and then transferred to glass well plates before robotic addition to the cells. The 0 mM Na extracellular solution (0Na-ECF) used at the end of each experiment for the Late INa and Peak INa assays to measure baseline current contains: 140 mM N-methyl-D-glucamine; 4 mM KCl; 1.8 mM CaCl2; 0.75 mM MgCl2; 5 mM HEPES and pH was adjusted to 7.4 with HCl.
For the Late INa assay, sodium channels are activated every 10 seconds (0.1 Hz) by depolarizing the cell membrane to −20 mV for 250 milliseconds (ms) from a holding potential of −120 mV. In response to a −20 mV voltage step, typical hNav1.5 sodium currents activate rapidly to a peak negative current and then inactivate nearly completely within 3-4 ms.
Compounds were tested to determine their activity in blocking the late sodium current. Late INa was generated by adding 10 μM Tefluthrin (pyrethroid) to the extracellular solution while recording Na currents. […] ATX-II and tefluthrin occupy distinct, non-overlapping binding sites and modify Na^+ channel function differently to increase late INa. […] After establishing the whole cell recording configuration, late INa activator is added to each well 4 times over a 16-17 minute period so that the late component of the Na current reaches a stable value.
Results are reported as percent block of late INa.

wild-type human cardiac sodium channel, hNav1.5, sequence (Q14524 whole entry): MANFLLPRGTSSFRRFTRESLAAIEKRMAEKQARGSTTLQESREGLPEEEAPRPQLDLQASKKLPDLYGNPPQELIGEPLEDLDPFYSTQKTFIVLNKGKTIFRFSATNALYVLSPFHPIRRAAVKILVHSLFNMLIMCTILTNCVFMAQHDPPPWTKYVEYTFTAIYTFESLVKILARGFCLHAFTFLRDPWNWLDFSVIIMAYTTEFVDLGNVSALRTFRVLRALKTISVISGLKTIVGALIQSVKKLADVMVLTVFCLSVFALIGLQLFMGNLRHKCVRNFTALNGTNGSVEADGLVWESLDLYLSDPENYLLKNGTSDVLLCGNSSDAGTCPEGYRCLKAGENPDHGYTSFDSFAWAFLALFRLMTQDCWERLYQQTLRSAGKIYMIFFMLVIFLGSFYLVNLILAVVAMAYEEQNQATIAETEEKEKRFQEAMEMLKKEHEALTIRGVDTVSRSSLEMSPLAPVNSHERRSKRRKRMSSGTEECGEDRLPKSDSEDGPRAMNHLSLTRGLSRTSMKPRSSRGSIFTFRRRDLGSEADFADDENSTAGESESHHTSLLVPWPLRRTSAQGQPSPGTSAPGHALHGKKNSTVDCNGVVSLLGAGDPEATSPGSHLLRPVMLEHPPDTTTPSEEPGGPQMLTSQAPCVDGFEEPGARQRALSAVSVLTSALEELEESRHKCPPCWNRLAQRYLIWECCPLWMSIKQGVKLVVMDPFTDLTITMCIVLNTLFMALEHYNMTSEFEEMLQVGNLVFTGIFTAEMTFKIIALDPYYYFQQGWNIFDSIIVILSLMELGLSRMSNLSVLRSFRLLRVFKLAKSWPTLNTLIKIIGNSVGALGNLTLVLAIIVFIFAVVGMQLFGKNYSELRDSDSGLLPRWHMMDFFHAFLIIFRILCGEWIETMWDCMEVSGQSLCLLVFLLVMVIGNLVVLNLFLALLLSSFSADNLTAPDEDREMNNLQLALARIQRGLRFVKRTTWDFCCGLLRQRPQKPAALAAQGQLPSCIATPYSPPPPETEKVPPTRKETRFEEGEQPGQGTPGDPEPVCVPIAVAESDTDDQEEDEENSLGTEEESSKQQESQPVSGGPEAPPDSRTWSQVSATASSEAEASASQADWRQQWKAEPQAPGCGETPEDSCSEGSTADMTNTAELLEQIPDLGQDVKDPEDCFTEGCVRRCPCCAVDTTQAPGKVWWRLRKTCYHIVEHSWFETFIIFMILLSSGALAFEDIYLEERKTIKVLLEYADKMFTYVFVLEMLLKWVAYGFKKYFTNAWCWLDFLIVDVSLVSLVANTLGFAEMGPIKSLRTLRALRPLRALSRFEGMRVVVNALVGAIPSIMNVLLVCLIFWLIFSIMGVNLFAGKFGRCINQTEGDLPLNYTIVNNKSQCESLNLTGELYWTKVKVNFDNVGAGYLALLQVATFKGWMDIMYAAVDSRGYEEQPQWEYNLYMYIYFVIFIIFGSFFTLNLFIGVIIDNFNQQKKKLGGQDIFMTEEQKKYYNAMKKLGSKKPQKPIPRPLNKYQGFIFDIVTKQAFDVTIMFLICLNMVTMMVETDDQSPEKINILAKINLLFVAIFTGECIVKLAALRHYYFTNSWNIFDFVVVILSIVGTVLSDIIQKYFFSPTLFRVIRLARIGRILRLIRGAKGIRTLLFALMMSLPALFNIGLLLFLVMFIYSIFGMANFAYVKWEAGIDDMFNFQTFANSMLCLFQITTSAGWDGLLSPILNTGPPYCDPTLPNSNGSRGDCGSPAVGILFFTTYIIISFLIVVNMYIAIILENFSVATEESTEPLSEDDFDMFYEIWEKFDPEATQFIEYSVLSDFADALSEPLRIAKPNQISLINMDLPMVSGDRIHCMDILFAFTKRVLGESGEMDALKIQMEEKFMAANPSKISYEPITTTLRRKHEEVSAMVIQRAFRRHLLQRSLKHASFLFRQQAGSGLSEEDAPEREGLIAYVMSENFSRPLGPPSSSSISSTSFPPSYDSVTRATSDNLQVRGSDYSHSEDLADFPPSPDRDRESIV

SMILES | inhibition at 1 µM [%]
O=C(C1CC(F)(F)C1)N1CCOc2ccc(-c3ccc(OC(F)(F)F)cc3)cc2C1 [III-11, (3,3-difluorocyclobutyl)(7-(4-(trifluoromethoxy)phenyl)-2,3-dihydrobenzo[f][1,4]oxazepin-4(5H)-yl)methanone] | 20
O=C1c2cc(-c3ccc(OC(F)(F)F)cc3)ccc2OCCN1Cc1ccc2c(c1)OCCO2 [II-5, 4-((2,3-dihydrobenzo[b][1,4]dioxin-6-yl)methyl)-7-(4-(trifluoromethoxy)phenyl)-3,4-dihydrobenzo[f][1,4]oxazepin-5(2H)-one] | 26
O=C1c2cc(-c3ccc(OCC(F)(F)F)cc3)ccc2OCCN1Cc1ncccn1 [II-107, 4-(pyrimidin-2-ylmethyl)-7-(4-(2,2,2-trifluoroethoxy)phenyl)-3,4-dihydrobenzo[f][1,4]oxazepin-5(2H)-one] | 18
[2H]C1([2H])Oc2ccc(-c3ccc(OC(F)(F)F)cc3)cc2C(=O)N(Cc2ncccn2)C1([2H])[2H] [II-174, 2,2,3,3-tetradeutero-4-(pyrimidin-2-ylmethyl)-7-(4-(trifluoromethoxy)phenyl)-3,4-dihydrobenzo[f][1,4]oxazepin-5(2H)-one] | 48
O=C1c2cc(-c3ccc(OC(F)(F)F)cc3)ccc2OCCN1Cc1nccc(N2CCOCC2)n1 [II-133] | 23
COc1ccnc(CN2CCOc3cnc(-c4ccc(OC(F)(F)F)cc4)cc3C2=O)n1 [XII-14, 4-((4-methoxypyrimidin-2-yl)methyl)-7-(4-(trifluoromethoxy)phenyl)-3,4-dihydropyrido[4,3-f][1,4]oxazepin-5(2H)-one] | 26
O=C1c2cc(CCc3ccc(C(F)(F)F)cc3)ccc2OCCN1Cc1ccccc1 [VIII-11, 4-benzyl-7-(4-(trifluoromethyl)phenethyl)-3,4-dihydrobenzo[f][1,4]oxazepin-5(2H)-one] | 42
CC(C)c1nc(-c2ccc3c(c2)C(=O)N(Cc2ccccn2)CCO3)cs1 [VI-30, 7-(2-isopropylthiazol-4-yl)-4-(pyridin-2-ylmethyl)-3,4-dihydrobenzo[f][1,4]oxazepin-5(2H)-one] | 40
C[C@H]1COc2ccc(-c3ccc(C(F)(F)F)cc3)cc2C(=O)N1Cc1ncccn1 [II-12, (S)-3-methyl-4-(pyrimidin-2-ylmethyl)-7-(4-(trifluoromethyl)phenyl)-3,4-dihydrobenzo[f][1,4]oxazepin-5(2H)-one] | 21
O=C1c2cc(-c3ccc(OC(F)(F)F)cc3)ccc2OCCN1CC(F)F [II-6, 4-(2,2-difluoroethyl)-7-(4-(trifluoromethoxy)phenyl)-3,4-dihydrobenzo[f][1,4]oxazepin-5(2H)-one] | 16
O=C1c2cc(-c3ccc(Oc4ccccc4)cc3)ccc2OCCN1Cc1ncccn1 [II-194, 7-(4-phenoxyphenyl)-4-(pyrimidin-2-ylmethyl)-3,4-dihydrobenzo[f][1,4]oxazepin-5(2H)-one] | 63
Cn1cncc1C(=O)N1CCOc2ccc(-c3ccc(C(F)(F)F)cc3)cc2C1 [III-32, (1-methyl-1H-imidazol-5-yl)(7-(4-(trifluoromethyl)phenyl)-2,3-dihydrobenzo[f][1,4]oxazepin-4(5H)-yl)methanone] | 22
O=C1c2cc(C3=CCCCC3)ccc2OCCN1Cc1ncccn1 [Compound V-3, 7-cyclohexenyl-4-(pyrimidin-2-ylmethyl)-3,4-dihydrobenzo[f][1,4]oxazepin-5(2H)-one] | 23
O=C1c2cc(C#Cc3ccccc3)ccc2OCCN1Cc1ncccn1 [VIII-5, 7-(phenylethynyl)-4-(pyrimidin-2-ylmethyl)-3,4-dihydrobenzo[f][1,4]oxazepin-5(2H)-one] | 32
O=C1c2cc(-c3ccc(OC(F)(F)F)cc3)ccc2OCCN1CCCS(=O)(=O)N1CCC1 [II-191, 4-(3-(azetidin-1-ylsulfonyl)propyl)-7-(4-(trifluoromethoxy)phenyl)-3,4-dihydrobenzo[f][1,4]oxazepin-5(2H)-one] | 25
O=C1c2cc(-c3ccc(OC(F)(F)F)cc3)ncc2OCCN1CC1CC1 [XII-9, 4-(cyclopropylmethyl)-7-(4-(trifluoromethoxy)phenyl)-3,4-dihydropyrido[4,3-f][1,4]oxazepin-5(2H)-one] | 22
O=C1c2cc(-c3ccc(CC(F)(F)F)cc3)ccc2OCCN1Cc1ncccn1 [II-150, 4-(pyrimidin-2-ylmethyl)-7-(4-(2,2,2-trifluoroethyl)phenyl)-3,4-dihydrobenzo[f][1,4]oxazepin-5(2H)-one] | 27
O=C1c2cc(-c3ccc(C(F)(F)F)s3)ccc2OCCN1Cc1ncccn1 [VI-37, 4-(pyrimidin-2-ylmethyl)-7-(5-(trifluoromethyl)thiophen-2-yl)-3,4-dihydrobenzo[f][1,4]oxazepin-5(2H)-one] | 48
O=C1c2cc(-c3ccc(Oc4ccc(F)cc4)cc3)ccc2OCCN1Cc1ncccn1 [II-193, 7-(4-(4-fluorophenoxy)phenyl)-4-(pyrimidin-2-ylmethyl)-3,4-dihydrobenzo[f][1,4]oxazepin-5(2H)-one] | 70
O=C1c2cc(-c3ccc(OC(F)(F)F)cc3)ccc2OCCN1CCc1ncccn1 [II-44, 4-(2-(pyrimidin-2-yl)ethyl)-7-(4-(trifluoromethoxy)phenyl)-3,4-dihydrobenzo[f][1,4]oxazepin-5(2H)-one] | 39
O=C1c2cc(-c3ccc(OC(F)(F)F)cc3)ccc2OCCN1Cc1ncc(Cl)cn1 [II-65, 4-((5-chloropyrimidin-2-yl)methyl)-7-(4-(trifluoromethoxy)phenyl)-3,4-dihydrobenzo[f][1,4]oxazepin-5(2H)-one] | 19
O=C1c2cc(-c3ccc(OC(F)(F)F)cc3)ccc2OCCN1Cc1nnc(C2CCC2)o1 [II-4, 4-((5-cyclobutyl-1,3,4-oxadiazol-2-yl)methyl)-7-(4-(trifluoromethoxy)phenyl)-3,4-dihydrobenzo[f][1,4]oxazepin-5(2H)-one] | 30
N#CC1(c2ccc(-c3ccc4c(c3)C(=O)N(Cc3ncccn3)CCO4)cc2)CCCC1 [II-122, 1-(4-(5-oxo-4-(pyrimidin-2-ylmethyl)-2,3,4,5-tetrahydrobenzo[f][1,4]oxazepin-7-yl)phenyl)cyclopentanecarbonitrile] | 19
CC(C)[C@H]1COc2ccc(-c3ccc(C(F)(F)F)cc3)cc2C(=O)N1 [II-77, (S)-3-isopropyl-7-(4-(trifluoromethyl)phenyl)-3,4-dihydrobenzo[f][1,4]oxazepin-5(2H)-one] | 21
O=C1c2cc(-c3ccc(C(F)(F)F)cc3)ccc2-n2ccnc2CN1Cc1ccccc1 [Compound X-12, 5-benzyl-8-(4-(trifluoromethyl)phenyl)-4H-benzo[f]imidazo[1,2-a][1,4]diazepin-6(5H)-one] | 26
Cc1cc(OC(F)(F)F)ccc1-c1ccc2c(c1)C(=O)N(Cc1ncccn1)CCO2 [II-146, 7-(2-methyl-4-(trifluoromethoxy)phenyl)-4-(pyrimidin-2-ylmethyl)-3,4-dihydrobenzo[f][1,4]oxazepin-5(2H)-one] | 36
O=C1c2cc(-c3cccc(Oc4ccccc4)c3)ccc2OCCN1Cc1ncccn1 [II-195, 7-(3-phenoxyphenyl)-4-(pyrimidin-2-ylmethyl)-3,4-dihydrobenzo[f][1,4]oxazepin-5(2H)-one] | 66
O=C1c2cc(-c3ccc(OC(F)F)cc3)ccc2OCCN1Cc1ccccn1 [II-159, 7-(4-(difluoromethoxy)phenyl)-4-(pyridin-2-ylmethyl)-3,4-dihydrobenzo[f][1,4]oxazepin-5(2H)-one] | 28

Same assay, conditions: percent block of late INa; compound at 1 μM; 10 μM Tefluthrin

SMILES | Late INa 1 μM [%]
O=C1c2cc(-c3ccc(C(F)(F)F)cc3)ccc2OCCN1Cc1cn2ccccc2n1 [II-135, 4-(imidazo[1,2-a]pyridin-2-ylmethyl)-7-(4-(trifluoromethyl)phenyl)-3,4-dihydrobenzo[f][1,4]oxazepin-5(2H)-one] | 32
